Laboratory results published in patent publication US20260265252A1, “SOLID STATE FORMS OF IMIPRIDONE DERIVATIVE” (CHIMERIX, INC., priority 2024, published 2026).
Structures can show the parent of a compound that is named as a salt.

Assay: ICH-compliant stability study of ONC206-HCl Drug Substance (appearance, XRPD form, HPLC assay, purity/impurities, water content, particle size, microbial)
Assay type: physicochemical
Parameters: key to Each unidentified impurity (NMT 0.5% area) / Appearance (White to off-white solid) / Polymorphic form (XRPD) (Consistent with form 2 reference diffractogram): C = Conforms; A = Absence
Description: The purpose of the ICH-compliant stability study was to evaluate the performance to specifications of ONC206-HCl Drug Substance under specified container closure configuration, storage conditions, and intervals.
The study was performed according to ICH Q1A(R2) and QlE Guidance documents. […]
The Container Closure Systems were: • Primary container: LDPE bag, 4×8 inches (Source: Nexus—64378); bag closure PE 180 nm (Source: Entourage), • Secondary container: LDPE bag, 4×8 inches (Source: Nexus—64378); bag closure PE 180 nm (Source: Entourage), • Tertiary container: Heat-sealed foil bag, 15×30 (Source: SERCALIA S.L.—10234), and • Outer container: Plastic drum, 6 L (Source: Curtec, HDPE ref 54021) or Plastic drum, 3.6 L (Source: Curtec).

[1] = 30 ± 2° C./65% ± 5% RH intermediate conditions, 9 months
[2] = 30 ± 2° C./65% ± 5% RH intermediate conditions, 12 months
[3] = 40 ± 2° C./75% ± 5% RH accelerated conditions, 0 months
[4] = 40 ± 2° C./75% ± 5% RH accelerated conditions, 3 months
[5] = 40 ± 2° C./75% ± 5% RH accelerated conditions, 6 months
[6] = at all conditions, over the course of the study

- Particle Size (Malvern) D10 (Report result μm) [1]: 30.5 μm
- Particle Size (Malvern) D50 (Report result μm) [1]: 93.2 μm
- Particle Size (Malvern) D90 (Report result μm) [1]: 197.0 μm
- Polymorphic form (XRPD) (Consistent with form 2 reference diffractogram) [1]: C
- Purity by HPLC (NLT 98.0% area) [1]: 100.0 % area
- Total impurities (NMT 2.0% area) [1]: 0.00 % area
- Water Content by Kf (Report result % w/w) [1]: 9.3 % w/w
- Appearance (White to off-white solid) [2]: C
- Assay by HPLC-UV (Anhydrous & Solvent Free basis) 97.0-103.0% w/w [2]: 100.0 % w/w
- Each unidentified impurity (NMT 0.5% area) [2]: C
- Particle Size (Malvern) D10 (Report result μm) [2]: 29.7 μm
- Particle Size (Malvern) D50 (Report result μm) [2]: 93.7 μm
- Particle Size (Malvern) D90 (Report result μm) [2]: 203.0 μm
- Polymorphic form (XRPD) (Consistent with form 2 reference diffractogram) [2]: C
- Purity by HPLC (NLT 98.0% area) [2]: 100.0 % area
- Total impurities (NMT 2.0% area) [2]: 0.00 % area
- Water Content by Kf (Report result % w/w) [2]: 9.3 % w/w
- period over which stability is confirmed (40° C. (Table 40), 75% RH accelerated conditions): 6 months
- Appearance (White to off-white solid) [3]: C
- Assay by HPLC-UV (Anhydrous & Solvent Free basis) 97.0-103.0% w/w [3]: 101.6 % w/w
- Each unidentified impurity (NMT 0.5% area) [3]: C
- Particle Size (Malvern) D10 (Report result μm) [3]: 28.2 μm
- Particle Size (Malvern) D50 (Report result μm) [3]: 91.4 μm
- Particle Size (Malvern) D90 (Report result μm) [3]: 201.3 μm
- Polymorphic form (XRPD) (Consistent with form 2 reference diffractogram) [3]: C
- Purity by HPLC (NLT 98.0% area) [3]: 100.0 % area
- Total impurities (NMT 2.0% area) [3]: 0.00 % area
- Water Content by Kf (Report result % w/w) [3]: 9.3 % w/w
- Appearance (White to off-white solid) [4]: C
- Assay by HPLC-UV (Anhydrous & Solvent Free basis) 97.0-103.0% w/w [4]: 100.1 % w/w
- Each unidentified impurity (NMT 0.5% area) [4]: C
- Particle Size (Malvern) D10 (Report result μm) [4]: 28.1 μm
- Particle Size (Malvern) D50 (Report result μm) [4]: 91.5 μm
- Particle Size (Malvern) D90 (Report result μm) [4]: 199.0 μm
- Polymorphic form (XRPD) (Consistent with form 2 reference diffractogram) [4]: C
- Purity by HPLC (NLT 98.0% area) [4]: 100.0 % area
- Total impurities (NMT 2.0% area) [4]: 0.00 % area
- Water Content by Kf (Report result % w/w) [4]: 9.5 % w/w
- Each unidentified impurity (Report RRT and % area for peaks ≥0.10% area) (40 ± 2° C./75% ± 5% RH accelerated conditions, 3 months, peak RRT 1.30): 0.10% aire
- Appearance (White to off-white solid) [5]: C
- Assay by HPLC-UV (Anhydrous & Solvent Free basis) 97.0-103.0% w/w [5]: 100.2 % w/w
- Each unidentified impurity (NMT 0.5% area) [5]: C
- Particle Size (Malvern) D10 (Report result μm) [5]: 29.2 μm
- Particle Size (Malvern) D50 (Report result μm) [5]: 92.6 μm
- Particle Size (Malvern) D90 (Report result μm) [5]: 201.0 μm
- Polymorphic form (XRPD) (Consistent with form 2 reference diffractogram) [5]: C
- Purity by HPLC (NLT 98.0% area) [5]: 100.0 % area
- Total impurities (NMT 2.0% area) [5]: 0.00 % area
- Water Content by Kf (Report result % w/w) [5]: 9.5 % w/w
- Particle Size (D10, D50 and D90) [6]: no significant evolution
- Polymorphic form (XRPD) [6]: no significant change
- Purity and total impurities [6]: no significant evolution
- Water Content [6]: no significant evolution
- appearance [6]: no significant change
- Assay HPLC (over the course of the study): no significant evolution
- microbial results (over the course of the study): in specifications
- period over which stability is confirmed (−20° C. (Table 41)): 12 months
- Appearance (White to off-white solid) (−20° C., 0 months): C
- Assay by HPLC-UV (Anhydrous & Solvent Free basis) 97.0-103.0% w/w (−20° C., 0 months): 101.6 % w/w
- Each unidentified impurity (NMT 0.5% area) (−20° C., 0 months): C
- Particle Size (Malvern) D50 (Report result μm) (−20° C., 0 months): 91.4 μm
- Particle Size (Malvern) D90 (Report result μm) (−20° C., 0 months): 201.3 μm
- Particle Size (Malvern) Dl0 (Report result μm) (−20° C., 0 months): 28.2 μm
- Polymorphic form (XRPD) (Consistent with form 2 reference diffractogram) (−20° C., 0 months): C
- Purity by HPLC (NLT 98.0% area) (−20° C., 0 months): 100.0 % area
- Total impurities (NMT 2.0% area) (−20° C., 0 months): 0.00 % area
- Water Content by Kf (Report result % w/w) (−20° C., 0 months): 9.3 % w/w
- Appearance (White to off-white solid) (−20° C., 1 months): C
- Assay by HPLC-UV (Anhydrous & Solvent Free basis) 97.0-103.0% w/w (−20° C., 1 months): 101.5 % w/w
- Each unidentified impurity (NMT 0.5% area) (−20° C., 1 months): C
- Particle Size (Malvern) D50 (Report result μm) (−20° C., 1 months): 89.5 μm
- Particle Size (Malvern) D90 (Report result μm) (−20° C., 1 months): 193.0 μm
- Particle Size (Malvern) Dl0 (Report result μm) (−20° C., 1 months): 27.5 μm
- Polymorphic form (XRPD) (Consistent with form 2 reference diffractogram) (−20° C., 1 months): C
- Purity by HPLC (NLT 98.0% area) (−20° C., 1 months): 100.0 % area
- Total impurities (NMT 2.0% area) (−20° C., 1 months): 0.00 % area
- Water Content by Kf (Report result % w/w) (−20° C., 1 months): 9.3 % w/w
- Appearance (White to off-white solid) (−20° C., 2 months): C
- Assay by HPLC-UV (Anhydrous & Solvent Free basis) 97.0-103.0% w/w (−20° C., 2 months): 100.2 % w/w
- Each unidentified impurity (NMT 0.5% area) (−20° C., 2 months): C
- Particle Size (Malvern) D50 (Report result μm) (−20° C., 2 months): 90.6 μm
- Particle Size (Malvern) D90 (Report result μm) (−20° C., 2 months): 189.0 μm
- Particle Size (Malvern) Dl0 (Report result μm) (−20° C., 2 months): 28.8 μm
- Polymorphic form (XRPD) (Consistent with form 2 reference diffractogram) (−20° C., 2 months): C
- Purity by HPLC (NLT 98.0% area) (−20° C., 2 months): 100.0 % area
- Total impurities (NMT 2.0% area) (−20° C., 2 months): 0.00 % area
- Water Content by Kf (Report result % w/w) (−20° C., 2 months): 9.4 % w/w
- Appearance (White to off-white solid) (−20° C., 3 months): C
- Assay by HPLC-UV (Anhydrous & Solvent Free basis) 97.0-103.0% w/w (−20° C., 3 months): 100.0 % w/w
- Each unidentified impurity (NMT 0.5% area) (−20° C., 3 months): C
- Particle Size (Malvern) D50 (Report result μm) (−20° C., 3 months): 89.4 μm
- Particle Size (Malvern) D90 (Report result μm) (−20° C., 3 months): 195.0 μm
- Particle Size (Malvern) Dl0 (Report result μm) (−20° C., 3 months): 27.2 μm
- Polymorphic form (XRPD) (Consistent with form 2 reference diffractogram) (−20° C., 3 months): C
- Purity by HPLC (NLT 98.0% area) (−20° C., 3 months): 100.0 % area
- Total impurities (NMT 2.0% area) (−20° C., 3 months): 0.00 % area
- Water Content by Kf (Report result % w/w) (−20° C., 3 months): 9.5 % w/w
- Appearance (White to off-white solid) (−20° C., 6 months): C
- Assay by HPLC-UV (Anhydrous & Solvent Free basis) 97.0-103.0% w/w (−20° C., 6 months): 100.1 % w/w
- Each unidentified impurity (NMT 0.5% area) (−20° C., 6 months): C
- Particle Size (Malvern) D50 (Report result μm) (−20° C., 6 months): 89.0 μm
- Particle Size (Malvern) D90 (Report result μm) (−20° C., 6 months): 192.0 μm
- Particle Size (Malvern) Dl0 (Report result μm) (−20° C., 6 months): 27.5 μm
- Polymorphic form (XRPD) (Consistent with form 2 reference diffractogram) (−20° C., 6 months): C
- Purity by HPLC (NLT 98.0% area) (−20° C., 6 months): 100.0 % area
- Total impurities (NMT 2.0% area) (−20° C., 6 months): 0.00 % area
- Water Content by Kf (Report result % w/w) (−20° C., 6 months): 9.3 % w/w
- Appearance (White to off-white solid) (−20° C., 9 months): C
- Assay by HPLC-UV (Anhydrous & Solvent Free basis) 97.0-103.0% w/w (−20° C., 9 months): 100.4 % w/w
- Each unidentified impurity (NMT 0.5% area) (−20° C., 9 months): C
- Particle Size (Malvern) D50 (Report result μm) (−20° C., 9 months): 91.8 μm
- Particle Size (Malvern) D90 (Report result μm) (−20° C., 9 months): 196.0 μm
- Particle Size (Malvern) Dl0 (Report result μm) (−20° C., 9 months): 29.5 μm
- Polymorphic form (XRPD) (Consistent with form 2 reference diffractogram) (−20° C., 9 months): C
- Purity by HPLC (NLT 98.0% area) (−20° C., 9 months): 100.0 % area
- Total impurities (NMT 2.0% area) (−20° C., 9 months): 0.00 % area
- Water Content by Kf (Report result % w/w) (−20° C., 9 months): 9.3 % w/w
- Appearance (White to off-white solid) (−20° C., 12 months): C
- Assay by HPLC-UV (Anhydrous & Solvent Free basis) 97.0-103.0% w/w (−20° C., 12 months): 99.9 % w/w
- Each unidentified impurity (NMT 0.5% area) (−20° C., 12 months): C
- Particle Size (Malvern) D50 (Report result μm) (−20° C., 12 months): 92.2 μm
- Particle Size (Malvern) D90 (Report result μm) (−20° C., 12 months): 201.0 μm
- Particle Size (Malvern) Dl0 (Report result μm) (−20° C., 12 months): 28.7 μm
- Polymorphic form (XRPD) (Consistent with form 2 reference diffractogram) (−20° C., 12 months): C
- Purity by HPLC (NLT 98.0% area) (−20° C., 12 months): 100.0 % area
- Total impurities (NMT 2.0% area) (−20° C., 12 months): 0.00 % area
- Water Content by Kf (Report result % w/w) (−20° C., 12 months): 9.2 % w/w
SMILES: O=C1C2=C(CCN(Cc3ccccc3)C2)N2CCN=C2N1Cc1ccc(F)cc1F [ONC206-HCl, 7-benzyl-4-(2,4-difluorobenzyl)-2,4,6,7,8,9-hexahydroimidazo[1,2-a]pyrido[3,4-e]pyrimidin-5(1H)-one]
